{"source": "patent US20210038602A1", "about": "“COMBINATION TREATMENT OF ACUTE MYELOID LEUKEMIA” (Boehringer Ingelheim International GmbH, priority 2018, published 2021)", "tested_on": "AML cell line MV-4-11B", "assay": "IncuCyte live cell imaging assay: cell growth (confluence) and apoptosis (Caspase-3/7 green fluorescence) over time", "format": "cell-based", "details": "MV-4-11B cells, single compound treatment, vs DMSO control", "procedure": "The analysis is done by the Essen BioScience IncuCyte™ FLR live cell imaging system. It enables observation and quantification of cell behavior over time by automatically gathering and analyzing images around the clock. This live-cell, non-perturbating imaging approach yields kinetic data, all generated within the controlled environment of a standard cell incubator.\nMV-4-11B is the AML cell line MV-4-11 from ATCC (CRL-9591) which has achieved a mutation in TP53 (c.742C>T, p.R248W, heterozygous for TP53). MV-4-11B cells were grown in T-75 flasks using RPMI1640 medium supplemented with 10% fetal calf serum and 50 μM mercaptoethanol. Cultures were incubated at 37° C. and 5% CO2 in a humidified atmosphere.\nFor the IncuCyte live cell imaging assays, cells were plated in 96 well plates, Poly-D-Lysine coated, and were incubated with the respective compounds (BET inhibitor 1-12, volasertib), either alone or in combination. For the detection of apoptotic cells, the Essen BioSciences CellPlayer™ 96 well Kinetic Caspase-3/7 Reagent was added.\nTo determine cell proliferation, “confluence” (area covered with cells in the wells) was used as readout, to determine the amount of apoptosis (dead cells), the intensity of green fluorescence was used as readout."}
{"compound": "CC[C@@H]1C(=O)N(C)c2cnc(Nc3ccc(C(=O)N[C@H]4CC[C@H](N5CCN(CC6CC6)CC5)CC4)cc3OC)nc2N1C(C)C", "note": "[volasertib, N-[trans-4-[4-(cyclopropylmethyl)-1-piperazinyl]cyclohexyl]-4-[[(7R)-7-ethyl-5,6,7,8-tetrahydro-5-methyl-8-(1-methylethyl)-6-oxo-2-pteridinyl]amino]-3-methoxy-benzamide]", "values": [{"measurement": "Cell growth (confluence)", "setting": "over time (FIGS. 1-12 a)", "result": "reduced in comparison to DMSO control treated cells"}, {"measurement": "Apoptosis (Caspase-3/7 green fluorescence)", "setting": "over time (FIGS. 1-12 b)", "result": "increased in comparison to DMSO control treated cells"}]}
